Reference: PMC4065032, “Biochemical Characterization of Quinolinic Acid Phosphoribosyltransferase from Mycobacterium tuberculosis H37Rv and Inhibition of Its Activity by Pyrazinamide” (PLoS ONE, 2014)
Several values for one entry are separate records, joined by “and”; a condition that tells them apart may be missing. Equal entries are not always repeated. Where two headings read alike, the source gives them in different places.

Columns and labels:
[1] = biological target: T1, MtQAPRTase (Mycobacterium tuberculosis, UniProt P9WJJ7)
T1 sequence (P9WJJ7 1-285): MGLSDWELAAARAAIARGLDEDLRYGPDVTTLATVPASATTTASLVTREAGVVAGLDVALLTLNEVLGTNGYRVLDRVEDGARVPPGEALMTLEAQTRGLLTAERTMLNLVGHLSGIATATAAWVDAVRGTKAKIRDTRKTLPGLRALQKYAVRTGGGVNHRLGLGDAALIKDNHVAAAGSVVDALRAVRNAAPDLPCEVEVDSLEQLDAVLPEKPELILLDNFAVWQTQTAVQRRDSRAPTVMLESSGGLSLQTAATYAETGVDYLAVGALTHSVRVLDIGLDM

[2] = biological target: T1, MtQAPRTase; test: Inhibition of MtQAPRTase activity by PZA/POA (HPLC quantification of NAMN); type: biochemical, Mycobacterium tuberculosis H37Rv; set-up: Full-length nadC from M. tuberculosis H37Rv was inserted into the expression vector pET-30a; made in house; host or cells: E. coli BL21 (DE3), pET-30a; settings: for Ki: read-out: Ki estimated from IC50 by web-based tool
[3] = biological target: T1, MtQAPRTase; test: PZA or POA added instead of QA or PRPP as substrate (HPLC); type: biochemical, Mycobacterium tuberculosis H37Rv; set-up: Full-length nadC from M. tuberculosis H37Rv was inserted into the expression vector pET-30a; made in house; host or cells: E. coli BL21 (DE3), pET-30a
[4] = biological target: T2, WT MtQAPRTase (Mycobacterium tuberculosis, UniProt P9WJJ7); test: Kinetic parameters of MtQAPRTase (spectrophotometric assay at 266 nm); type: biochemical, Mycobacterium tuberculosis H37Rv
T2 sequence (P9WJJ7 1-285): T1 sequence (P9WJJ7 1-285)

| SMILES | Relative Activity [1] | Specific activity [1] | other results |
| --- | --- | --- | --- |
| [Ca+2].[Cl-].[Cl-] [Ca^2+ (CaCl2), CaCl2] | 0% | 0 Unit/mg |  |
| [Cl-].[Cl-].[Co+2] [Co^2+ (CoCl2), CoCl2] | 12% | 0.15 Unit/mg |  |
| O=S(=O)([O-])[O-].[Cu+2] [Cu^2+ (CuSO4), CuSO4] | 0% | 0 Unit/mg |  |
| [Cl][Fe][Cl] [Fe^2+ (FeCl2), FeCl2] | 6% | 0.06 Unit/mg |  |
| [Cl-].[Cl-].[Mg+2] [Mg^2+ (MgCl2), MgCl2] | 100% | 1.32 Unit/mg |  |
| [Cl][Mn][Cl] [Mn^2+ (MnCl2), MnCl2] | 27% | 0.35 Unit/mg |  |
| O=C(O)c1cnccn1 [POA, Pyrazinoic acid] |  |  | IC50 [2]: 3450 µM and > 20000 µM; Ki ([2]; pH 7.2): 175 µM; Use as substrate by MtQAPRTase [3]: not substrates |
| O=P(O)(O)OC[C@H]1O[C@H](OP(=O)(O)OP(=O)(O)O)[C@H](O)[C@@H]1O [PRPP, 5-phosphoribosyl-1-pyrophosphate] |  |  | kcat ([4]; varied substrate, other substrate fixed (QA 0.3 mM or PRPP 1.0 mM), pH 7.2, 37°C): 0.14 s⁻¹; Km ([4]; varied substrate, other substrate fixed (QA 0.3 mM or PRPP 1.0 mM), pH 7.2, 37°C, read-out: Km): 390 µM |
| NC(=O)c1cnccn1 [PZA, Pyrazinamide] |  |  | IC50 [2]: 380 µM and 1370 µM; Ki ([2]; pH 6.2): 69.4 µM; Ki ([2]; pH 7.2): 19.2 µM; Use as substrate by MtQAPRTase [3]: not substrates |
| O=C(O)c1cccnc1C(=O)O [QA, 2,3-pyridinedicarboxylic acid] |  |  | Km ([4]; pH 7.2): 80 µM; kcat ([4]; pH 7.2): 0.12 s^-1 and 0.12 |
| [Cl-].[Cl-].[Zn+2] [Zn^2+ (ZnCl2), ZnCl2] | 0% | 0 Unit/mg |  |
